{"source": "patent US10835533B2", "about": "“1 -((3S,4R)-4-(3-fluorophenyl)-1-(2-methoxyethyl)pyrrolidin-3-yl)-3-(4-methyl-3-(2-methylpyrimidin-5-yl)-1-phenyl-1H-pyrazol-5-yl)urea as a TrkA kinase inhibitor” (Array BioPharma Inc., priority 2014, dated 2020)", "test_in_all_cases": "KinaseProfiler kinase profiling", "assay_type_in_all_cases": "biochemical", "details_in_all_cases": "10 μM, ATP near Km", "key": {"PKCepsilon": {"molecular_target": "T1, PKCepsilon (Homo sapiens, UniProt Q02156)", "T1 construct": "purchased Millipore, Inc. (KinaseProfiler service)", "outline": "(§1)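 10 μM cpd, duplicate, [ATP] ≈ Km per kinase. Output = POC, mean of n=2.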"}, "MKK4_m": {"molecular_target": "T2, MKK4_m (Mus musculus, UniProt P47809)", "T2 construct": "purchased Millipore, Inc. (KinaseProfiler service)", "outline": "as §1"}, "ALK": {"molecular_target": "T3, ALK (Homo sapiens, UniProt Q9UM73)", "T3 construct": "purchased Millipore, Inc. (KinaseProfiler service)", "outline": "as §1"}, "IKKalpha": {"molecular_target": "T4, IKKalpha (Homo sapiens, UniProt O15111)", "T4 construct": "purchased Millipore, Inc. (KinaseProfiler service)", "outline": "as §1"}, "MLK1": {"molecular_target": "T5, MLK1 (Homo sapiens, UniProt P80192)", "T5 construct": "purchased Millipore, Inc. (KinaseProfiler service)", "outline": "as §1"}, "PDK1": {"molecular_target": "T6, PDK1 (Homo sapiens, UniProt O15530)", "T6 construct": "purchased Millipore, Inc. (KinaseProfiler service)", "outline": "as §1"}, "EphB3": {"molecular_target": "T7, EphB3 (Homo sapiens, UniProt P54753)", "T7 construct": "purchased Millipore, Inc. (KinaseProfiler service)", "T7 sequence (P54753 34-998)": "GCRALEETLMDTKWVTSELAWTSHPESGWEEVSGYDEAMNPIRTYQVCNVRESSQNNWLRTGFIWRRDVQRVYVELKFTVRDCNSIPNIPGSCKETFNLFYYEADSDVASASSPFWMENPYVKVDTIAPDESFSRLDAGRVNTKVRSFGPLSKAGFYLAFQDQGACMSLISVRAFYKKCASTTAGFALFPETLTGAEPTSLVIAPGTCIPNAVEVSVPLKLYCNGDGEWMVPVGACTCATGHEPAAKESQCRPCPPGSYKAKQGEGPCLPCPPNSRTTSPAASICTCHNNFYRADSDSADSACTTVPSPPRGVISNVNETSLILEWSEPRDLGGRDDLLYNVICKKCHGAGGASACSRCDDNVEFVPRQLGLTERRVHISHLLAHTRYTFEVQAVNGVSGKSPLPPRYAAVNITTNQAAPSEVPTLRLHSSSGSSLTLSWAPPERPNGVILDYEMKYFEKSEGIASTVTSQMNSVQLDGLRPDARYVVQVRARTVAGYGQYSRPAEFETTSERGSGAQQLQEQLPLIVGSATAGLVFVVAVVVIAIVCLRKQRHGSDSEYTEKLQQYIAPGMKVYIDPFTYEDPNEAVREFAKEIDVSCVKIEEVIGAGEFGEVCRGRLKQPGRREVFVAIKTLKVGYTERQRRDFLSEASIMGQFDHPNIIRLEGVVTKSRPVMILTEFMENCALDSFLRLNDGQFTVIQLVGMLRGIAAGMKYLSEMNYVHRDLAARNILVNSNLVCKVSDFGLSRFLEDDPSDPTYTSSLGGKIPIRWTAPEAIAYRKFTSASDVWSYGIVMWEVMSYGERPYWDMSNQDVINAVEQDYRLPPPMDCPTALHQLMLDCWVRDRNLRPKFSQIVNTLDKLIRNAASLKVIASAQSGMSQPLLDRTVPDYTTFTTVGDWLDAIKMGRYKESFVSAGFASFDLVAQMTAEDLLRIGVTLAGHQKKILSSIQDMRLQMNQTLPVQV", "outline": "as §1"}, "PAK5": {"molecular_target": "T8, PAK5 (Homo sapiens, UniProt Q9P286)", "T8 construct": "purchased Millipore, Inc. (KinaseProfiler service)", "outline": "as §1"}, "ROCK-I": {"molecular_target": "T9, ROCK-I (Homo sapiens, UniProt Q13464)", "T9 construct": "purchased Millipore, Inc. (KinaseProfiler service)", "outline": "as §1"}, "p70S6K": {"molecular_target": "T10, p70S6K (Homo sapiens, UniProt P23443)", "T10 construct": "purchased Millipore, Inc. (KinaseProfiler service)", "outline": "as §1"}, "MARK2": {"molecular_target": "T11, MARK2 (Homo sapiens, UniProt Q7KZI7)", "T11 construct": "purchased Millipore, Inc. (KinaseProfiler service)", "T11 sequence (Q7KZI7 whole entry)": "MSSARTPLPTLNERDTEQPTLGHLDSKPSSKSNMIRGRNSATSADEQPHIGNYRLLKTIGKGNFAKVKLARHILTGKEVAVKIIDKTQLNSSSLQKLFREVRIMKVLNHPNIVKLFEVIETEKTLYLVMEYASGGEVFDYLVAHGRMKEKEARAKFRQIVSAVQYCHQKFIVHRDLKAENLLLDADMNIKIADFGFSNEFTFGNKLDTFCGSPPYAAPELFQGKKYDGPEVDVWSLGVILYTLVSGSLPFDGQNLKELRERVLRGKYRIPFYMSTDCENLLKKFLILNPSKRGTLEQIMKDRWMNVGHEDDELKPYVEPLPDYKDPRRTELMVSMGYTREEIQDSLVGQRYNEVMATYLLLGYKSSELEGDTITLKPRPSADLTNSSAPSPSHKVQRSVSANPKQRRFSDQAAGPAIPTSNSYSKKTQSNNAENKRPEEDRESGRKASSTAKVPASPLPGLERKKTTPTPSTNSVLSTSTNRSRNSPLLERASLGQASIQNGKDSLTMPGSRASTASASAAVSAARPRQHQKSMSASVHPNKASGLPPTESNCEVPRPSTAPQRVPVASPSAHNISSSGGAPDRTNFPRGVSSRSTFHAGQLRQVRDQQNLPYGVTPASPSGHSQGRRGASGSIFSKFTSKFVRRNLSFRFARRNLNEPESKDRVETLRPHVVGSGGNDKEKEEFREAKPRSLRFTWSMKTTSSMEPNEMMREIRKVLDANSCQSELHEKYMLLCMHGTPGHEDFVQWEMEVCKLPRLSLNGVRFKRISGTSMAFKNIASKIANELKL", "outline": "as §1"}, "JNK3": {"molecular_target": "T12, JNK3 (Homo sapiens, UniProt P53779)", "T12 construct": "purchased Millipore, Inc. (KinaseProfiler service)", "outline": "as §1"}, "EphA3": {"molecular_target": "T13, EphA3 (Homo sapiens, UniProt P29320)", "T13 construct": "purchased Millipore, Inc. (KinaseProfiler service)", "outline": "as §1"}, "SRPK1": {"molecular_target": "T14, SRPK1 (Homo sapiens, UniProt Q96SB4)", "T14 construct": "purchased Millipore, Inc. (KinaseProfiler service)", "outline": "as §1"}, "MST1": {"molecular_target": "T15, MST1 (Homo sapiens, UniProt Q13043)", "T15 construct": "purchased Millipore, Inc. (KinaseProfiler service)", "outline": "as §1"}, "Plk3": {"molecular_target": "T16, Plk3 (Homo sapiens, UniProt Q9H4B4)", "T16 construct": "purchased Millipore, Inc. (KinaseProfiler service)", "T16 sequence (Q9H4B4 whole entry)": "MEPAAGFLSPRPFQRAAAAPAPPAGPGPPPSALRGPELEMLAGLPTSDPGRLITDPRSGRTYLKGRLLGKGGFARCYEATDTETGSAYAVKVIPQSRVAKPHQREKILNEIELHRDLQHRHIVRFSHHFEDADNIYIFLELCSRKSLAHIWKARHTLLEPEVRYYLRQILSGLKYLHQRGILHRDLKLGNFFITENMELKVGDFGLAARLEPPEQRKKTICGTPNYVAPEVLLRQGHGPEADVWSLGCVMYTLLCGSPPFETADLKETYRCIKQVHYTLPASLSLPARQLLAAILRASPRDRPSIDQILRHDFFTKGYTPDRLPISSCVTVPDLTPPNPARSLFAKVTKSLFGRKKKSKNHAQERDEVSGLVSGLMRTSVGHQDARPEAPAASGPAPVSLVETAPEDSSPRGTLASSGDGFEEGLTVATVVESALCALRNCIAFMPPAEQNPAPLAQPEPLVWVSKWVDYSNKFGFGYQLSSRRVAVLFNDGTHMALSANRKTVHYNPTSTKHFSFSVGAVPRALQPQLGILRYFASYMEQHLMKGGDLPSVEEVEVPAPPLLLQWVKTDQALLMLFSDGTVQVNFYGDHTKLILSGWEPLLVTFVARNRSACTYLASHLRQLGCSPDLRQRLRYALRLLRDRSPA", "outline": "as §1"}, "JNK2alpha2": {"molecular_target": "T17, JNK2alpha2 (Homo sapiens, UniProt P45984)", "T17 construct": "purchased Millipore, Inc. (KinaseProfiler service)", "outline": "as §1"}, "IGF-1R": {"molecular_target": "T18, IGF-1R (Homo sapiens, UniProt P08069)", "T18 construct": "purchased Millipore, Inc. (KinaseProfiler service)", "outline": "as §1"}, "p38delta": {"molecular_target": "T19, p38delta (Homo sapiens, UniProt O15264)", "T19 construct": "purchased Millipore, Inc. (KinaseProfiler service)", "outline": "as §1"}, "ErbB4": {"molecular_target": "T20, ErbB4 (Homo sapiens, UniProt Q15303)", "T20 construct": "purchased Millipore, Inc. (KinaseProfiler service)", "T20 sequence (Q15303 26-1308)": "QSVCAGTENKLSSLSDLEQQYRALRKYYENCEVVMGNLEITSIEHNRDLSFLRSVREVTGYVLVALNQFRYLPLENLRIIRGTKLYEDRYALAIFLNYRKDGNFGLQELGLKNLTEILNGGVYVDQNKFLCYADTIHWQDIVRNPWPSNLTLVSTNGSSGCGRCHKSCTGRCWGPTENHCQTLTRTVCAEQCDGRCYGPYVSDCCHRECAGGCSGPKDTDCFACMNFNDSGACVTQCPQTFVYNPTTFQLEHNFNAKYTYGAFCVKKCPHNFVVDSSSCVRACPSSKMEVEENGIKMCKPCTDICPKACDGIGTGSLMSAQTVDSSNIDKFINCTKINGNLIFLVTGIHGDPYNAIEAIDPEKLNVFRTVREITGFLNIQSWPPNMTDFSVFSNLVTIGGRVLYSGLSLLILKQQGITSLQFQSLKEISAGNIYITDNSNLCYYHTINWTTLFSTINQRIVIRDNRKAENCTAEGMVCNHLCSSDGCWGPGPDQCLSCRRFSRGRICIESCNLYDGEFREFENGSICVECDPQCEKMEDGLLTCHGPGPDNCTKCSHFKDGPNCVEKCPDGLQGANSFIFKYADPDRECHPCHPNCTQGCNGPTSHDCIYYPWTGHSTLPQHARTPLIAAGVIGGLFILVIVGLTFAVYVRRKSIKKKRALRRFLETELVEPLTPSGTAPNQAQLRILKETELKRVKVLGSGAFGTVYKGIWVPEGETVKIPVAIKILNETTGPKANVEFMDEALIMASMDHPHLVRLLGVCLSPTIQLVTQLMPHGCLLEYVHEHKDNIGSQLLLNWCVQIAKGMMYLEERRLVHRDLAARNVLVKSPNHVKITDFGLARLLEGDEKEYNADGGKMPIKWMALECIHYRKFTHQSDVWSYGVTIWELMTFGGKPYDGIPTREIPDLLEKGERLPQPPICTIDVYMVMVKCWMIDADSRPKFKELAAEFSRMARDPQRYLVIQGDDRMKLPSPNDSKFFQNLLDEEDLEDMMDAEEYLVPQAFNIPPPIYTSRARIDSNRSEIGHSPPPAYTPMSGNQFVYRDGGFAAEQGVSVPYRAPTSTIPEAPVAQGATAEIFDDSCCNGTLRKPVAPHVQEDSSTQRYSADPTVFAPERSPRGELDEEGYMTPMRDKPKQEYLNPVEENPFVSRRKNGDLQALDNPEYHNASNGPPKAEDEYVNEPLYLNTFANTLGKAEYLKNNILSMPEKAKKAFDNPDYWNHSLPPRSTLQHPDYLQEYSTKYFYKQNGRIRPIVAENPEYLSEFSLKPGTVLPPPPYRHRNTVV", "outline": "as §1"}, "DYRK2": {"molecular_target": "T21, DYRK2 (Homo sapiens, UniProt Q92630)", "T21 construct": "purchased Millipore, Inc. (KinaseProfiler service)", "outline": "as §1"}, "DAPK2": {"molecular_target": "T22, DAPK2 (Homo sapiens, UniProt Q9UIK4)", "T22 construct": "purchased Millipore, Inc. (KinaseProfiler service)", "outline": "as §1"}, "p38alpha": {"molecular_target": "T23, p38alpha (Homo sapiens, UniProt Q16539)", "T23 construct": "purchased Millipore, Inc. (KinaseProfiler service)", "outline": "as §1"}, "LIMK1": {"molecular_target": "T24, LIMK1 (Homo sapiens, UniProt P53667)", "T24 construct": "purchased Millipore, Inc. (KinaseProfiler service)", "outline": "as §1"}, "AURKA": {"molecular_target": "T25, AURKA (Homo sapiens, UniProt O14965)", "T25 construct": "purchased Millipore, Inc. (KinaseProfiler service)", "outline": "as §1"}, "MSK2": {"molecular_target": "T26, MSK2 (Homo sapiens, UniProt O75676)", "T26 construct": "purchased Millipore, Inc. (KinaseProfiler service)", "outline": "as §1"}, "TLK2": {"molecular_target": "T27, TLK2 (Homo sapiens, UniProt Q86UE8)", "T27 construct": "purchased Millipore, Inc. (KinaseProfiler service)", "outline": "as §1"}, "MKK7": {"molecular_target": "T28, MKK7 (Homo sapiens, UniProt O14733)", "T28 construct": "purchased Millipore, Inc. (KinaseProfiler service)", "T28 sequence (O14733 whole entry)": "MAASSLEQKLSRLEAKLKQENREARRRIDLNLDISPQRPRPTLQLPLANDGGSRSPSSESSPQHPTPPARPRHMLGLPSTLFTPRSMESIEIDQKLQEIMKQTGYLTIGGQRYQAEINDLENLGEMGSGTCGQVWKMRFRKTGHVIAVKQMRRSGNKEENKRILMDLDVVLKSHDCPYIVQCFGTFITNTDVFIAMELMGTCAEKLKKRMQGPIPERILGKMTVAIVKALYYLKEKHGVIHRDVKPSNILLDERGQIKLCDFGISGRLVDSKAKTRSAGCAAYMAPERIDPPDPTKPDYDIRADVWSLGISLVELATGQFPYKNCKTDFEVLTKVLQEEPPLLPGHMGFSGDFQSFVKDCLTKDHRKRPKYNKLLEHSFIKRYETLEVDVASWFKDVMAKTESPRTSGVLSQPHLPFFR", "outline": "as §1"}, "Met": {"molecular_target": "T29, Met (Homo sapiens, UniProt P08581)", "T29 construct": "purchased Millipore, Inc. (KinaseProfiler service)", "outline": "as §1"}, "GRK6": {"molecular_target": "T30, GRK6 (Homo sapiens, UniProt P43250)", "T30 construct": "purchased Millipore, Inc. (KinaseProfiler service)", "outline": "as §1"}, "MSSK1": {"molecular_target": "T31, MSSK1 (Homo sapiens, UniProt Q9UPE1)", "T31 construct": "purchased Millipore, Inc. (KinaseProfiler service)", "outline": "as §1"}, "Axl": {"molecular_target": "T32, Axl (Homo sapiens, UniProt P30530)", "T32 construct": "purchased Millipore, Inc. (KinaseProfiler service)", "T32 sequence (P30530 26-894)": "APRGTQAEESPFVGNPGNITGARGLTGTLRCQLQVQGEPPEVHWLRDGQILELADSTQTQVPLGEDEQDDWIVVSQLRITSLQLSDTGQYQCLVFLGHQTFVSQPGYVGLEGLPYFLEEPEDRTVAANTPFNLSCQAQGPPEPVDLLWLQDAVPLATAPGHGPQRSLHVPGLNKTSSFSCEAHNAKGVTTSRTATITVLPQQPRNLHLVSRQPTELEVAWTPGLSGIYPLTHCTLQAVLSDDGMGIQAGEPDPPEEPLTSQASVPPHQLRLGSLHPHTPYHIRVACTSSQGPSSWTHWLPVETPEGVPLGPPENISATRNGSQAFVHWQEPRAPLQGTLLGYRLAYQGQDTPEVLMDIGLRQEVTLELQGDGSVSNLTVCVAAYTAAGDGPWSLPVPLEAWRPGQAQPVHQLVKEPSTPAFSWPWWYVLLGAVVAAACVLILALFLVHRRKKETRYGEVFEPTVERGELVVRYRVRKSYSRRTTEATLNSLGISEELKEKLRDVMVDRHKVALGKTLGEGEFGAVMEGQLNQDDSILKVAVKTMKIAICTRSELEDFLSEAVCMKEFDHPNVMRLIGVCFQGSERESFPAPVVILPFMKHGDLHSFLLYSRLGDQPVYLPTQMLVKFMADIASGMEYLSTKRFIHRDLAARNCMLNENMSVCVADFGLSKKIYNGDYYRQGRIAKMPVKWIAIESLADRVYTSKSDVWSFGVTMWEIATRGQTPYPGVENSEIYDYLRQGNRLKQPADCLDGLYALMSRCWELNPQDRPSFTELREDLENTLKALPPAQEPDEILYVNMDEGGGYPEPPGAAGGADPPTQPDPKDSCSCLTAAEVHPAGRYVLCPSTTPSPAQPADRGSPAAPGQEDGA", "outline": "as §1"}, "SGK3": {"molecular_target": "T33, SGK3 (Homo sapiens, UniProt Q96BR1)", "T33 construct": "purchased Millipore, Inc. (KinaseProfiler service)", "outline": "as §1"}, "Fer": {"molecular_target": "T34, Fer (Homo sapiens, UniProt P16591)", "T34 construct": "purchased Millipore, Inc. (KinaseProfiler service)", "outline": "as §1"}, "PKCiota": {"molecular_target": "T35, PKCiota (Homo sapiens, UniProt P41743)", "T35 construct": "purchased Millipore, Inc. (KinaseProfiler service)", "outline": "as §1"}, "HIPK3": {"molecular_target": "T36, HIPK3 (Homo sapiens, UniProt Q9H422)", "T36 construct": "purchased Millipore, Inc. (KinaseProfiler service)", "outline": "as §1"}, "PKAC-alpha": {"molecular_target": "T37, PKAC-alpha (Homo sapiens, UniProt P17612)", "T37 construct": "purchased Millipore, Inc. (KinaseProfiler service)", "outline": "as §1"}, "PKCeta": {"molecular_target": "T38, PKCeta (Homo sapiens, UniProt P24723)", "T38 construct": "purchased Millipore, Inc. (KinaseProfiler service)", "outline": "as §1"}, "IR Activated": {"molecular_target": "T39, IR Activated (Homo sapiens, UniProt P06213)", "T39 construct": "purchased Millipore, Inc. (KinaseProfiler service)", "outline": "as §1"}, "MuSK": {"molecular_target": "T40, MuSK (Homo sapiens, UniProt O15146)", "T40 construct": "purchased Millipore, Inc. (KinaseProfiler service)", "outline": "as §1"}, "LOK": {"molecular_target": "T41, LOK (Homo sapiens, UniProt O94804)", "T41 construct": "purchased Millipore, Inc. (KinaseProfiler service)", "outline": "as §1"}}, "data": [{"smiles": "COCCN1C[C@@H](NC(=O)Nc2c(C)c(-c3cnc(C)nc3)nn2-c2ccccc2)[C@H](c2cccc(F)c2)C1", "note": "[Compound 1, 1-((3S,4R)-4-(3-fluorophenyl)-1-(2-methoxyethyl)pyrrolidin-3-yl)-3-(4-methyl-3-(2-methylpyrimidin-5-yl)-1-phenyl-1H-pyrazol-5-yl)urea]", "values": [{"measurement": "Avg POC", "setting": "PKCepsilon", "value": 101.5, "unit": "POC"}, {"measurement": "Avg POC", "setting": "MKK4_m", "value": 125, "unit": "POC"}, {"measurement": "Avg POC", "setting": "ALK", "value": 89, "unit": "POC"}, {"measurement": "Avg POC", "setting": "IKKalpha", "value": 101.5, "unit": "POC"}, {"measurement": "Avg POC", "setting": "MLK1", "value": 109.5, "unit": "POC"}, {"measurement": "Avg POC", "setting": "PDK1", "value": 104, "unit": "POC"}, {"measurement": "Avg POC", "setting": "EphB3", "value": 89.5, "unit": "POC"}, {"measurement": "Avg POC", "setting": "PAK5", "value": 111, "unit": "POC"}, {"measurement": "Avg POC", "setting": "ROCK-I", "value": 98.5, "unit": "POC"}, {"measurement": "Avg POC", "setting": "p70S6K", "value": 104, "unit": "POC"}, {"measurement": "Avg POC", "setting": "MARK2", "value": 109.5, "unit": "POC"}, {"measurement": "Avg POC", "setting": "JNK3", "value": 114.5, "unit": "POC"}, {"measurement": "Avg POC", "setting": "EphA3", "value": 95.5, "unit": "POC"}, {"measurement": "Avg POC", "setting": "SRPK1", "value": 96, "unit": "POC"}, {"measurement": "Avg POC", "setting": "MST1", "value": 107.5, "unit": "POC"}, {"measurement": "Avg POC", "setting": "Plk3", "value": 100.5, "unit": "POC"}, {"measurement": "Avg POC", "setting": "JNK2alpha2", "value": 98.5, "unit": "POC"}, {"measurement": "Avg POC", "setting": "IGF-1R", "value": 80.5, "unit": "POC"}, {"measurement": "Avg POC", "setting": "p38delta", "value": 105, "unit": "POC"}, {"measurement": "Avg POC", "setting": "ErbB4", "value": 107.5, "unit": "POC"}, {"measurement": "Avg POC", "setting": "DYRK2", "value": 102, "unit": "POC"}, {"measurement": "Avg POC", "setting": "DAPK2", "value": 97, "unit": "POC"}, {"measurement": "Avg POC", "setting": "p38alpha", "value": 107.5, "unit": "POC"}, {"measurement": "Avg POC", "setting": "LIMK1", "value": 98, "unit": "POC"}, {"measurement": "Avg POC", "setting": "AURKA", "value": 115, "unit": "POC"}, {"measurement": "Avg POC", "setting": "MSK2", "value": 116.5, "unit": "POC"}, {"measurement": "Avg POC", "setting": "TLK2", "value": 101.5, "unit": "POC"}, {"measurement": "Avg POC", "setting": "MKK7", "value": 125, "unit": "POC"}, {"measurement": "Avg POC", "setting": "Met", "value": 124.5, "unit": "POC"}, {"measurement": "Avg POC", "setting": "GRK6", "value": 98, "unit": "POC"}, {"measurement": "Avg POC", "setting": "MSSK1", "value": 127.5, "unit": "POC"}, {"measurement": "Avg POC", "setting": "Axl", "value": 115.5, "unit": "POC"}, {"measurement": "Avg POC", "setting": "SGK3", "value": 112.5, "unit": "POC"}, {"measurement": "Avg POC", "setting": "Fer", "value": 103.5, "unit": "POC"}, {"measurement": "Avg POC", "setting": "PKCiota", "value": 91, "unit": "POC"}, {"measurement": "Avg POC", "setting": "HIPK3", "value": 90, "unit": "POC"}, {"measurement": "Avg POC", "setting": "PKAC-alpha", "value": 129.5, "unit": "POC"}, {"measurement": "Avg POC", "setting": "PKCeta", "value": 100, "unit": "POC"}, {"measurement": "Avg POC", "setting": "IR Activated", "value": 105.5, "unit": "POC"}, {"measurement": "Avg POC", "setting": "MuSK", "value": 95, "unit": "POC"}, {"measurement": "Avg POC", "setting": "LOK", "value": 125.5, "unit": "POC"}]}]}
